Laboratory results from PubChem BioAssay AID1845201 (Molecular Pharmacology Branch, DTP, NCI, 2023).

Tested on: COR L88 complex tumor spheroid viability
Experiment: Anticancer human tumor COR L88 cell line growth inhibition;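 also: compound exposure lasted 7 days before viability readout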;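 as to viability, T/C: percent of DMSO vehicle-treated spheroids = 100%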
Details: for IC50: curve of first compound; for viability, T/C: stronger effect = lower value; active = viability on the fitted dose curve at most 10% of control; inactive = the rest
Procedure, shortened: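 Single agents and combinations were tested on spheroids built from tumor cells plus HUVEC and hMSC, at half-log dilutions starting at or near clinical Cmax, else 10 microM; final DMSO 0.25% (v/v).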

O=C(c1cc(Cc2n[nH]c(=O)c3ccccc23)ccc1F)N1CCN(C(=O)C2CC2)CC1 + COc1cc2c(cc1O)CCNC21CSC2c3c(OC(C)=O)c(C)c4c(c3C(COC1=O)N1C(O)C3Cc5cc(C)c(OC)c(O)c5C(C21)N3C)OCO4
0.683 µM: IC50 (second compound 0.000949 µM)
inactive: viability, T/C (second compound 30 pM, first compound 0.0949 µM) 93.6% | viability, T/C (second compound 30 pM, first compound 0.3 µM) 107% | viability, T/C (second compound 30 pM, first compound 0.949 µM) 95% | viability, T/C (second compound 30 pM, first compound 3 µM) 81.7% | viability, T/C (second compound 30 pM, first compound 9.49 µM) 54.6% | viability, T/C (second compound 30 pM, first compound 30 µM) 42.4% | viability, T/C (second compound 94.9 pM, first compound 0.0949 µM) 98.9% | viability, T/C (second compound 94.9 pM, first compound 0.3 µM) 96.4% | viability, T/C (second compound 94.9 pM, first compound 0.949 µM) 101% | viability, T/C (second compound 94.9 pM, first compound 3 µM) 71.8% | viability, T/C (second compound 94.9 pM, first compound 9.49 µM) 54.9% | viability, T/C (second compound 94.9 pM, first compound 30 µM) 43% | viability, T/C (second compound 0.0003 µM, first compound 0.0949 µM) 74.9% | viability, T/C (second compound 0.0003 µM, first compound 0.3 µM) 63.4% | viability, T/C (second compound 0.0003 µM, first compound 0.949 µM) 64.1% | viability, T/C (second compound 0.0003 µM, first compound 3 µM) 60.6% | viability, T/C (second compound 0.0003 µM, first compound 9.49 µM) 48.5% | viability, T/C (second compound 0.0003 µM, first compound 30 µM) 56.8% | viability, T/C (second compound 0.000949 µM, first compound 0.0949 µM) 57.2% | viability, T/C (second compound 0.000949 µM, first compound 0.3 µM) 56.2% | viability, T/C (second compound 0.000949 µM, first compound 0.949 µM) 42.6% | viability, T/C (second compound 0.000949 µM, first compound 3 µM) 40.7% | viability, T/C (second compound 0.000949 µM, first compound 9.49 µM) 13.7%
active: viability, T/C (second compound 0.000949 µM, first compound 30 µM) 2.22% | viability, T/C (second compound 0.003 µM, first compound 0.0949 µM) 1.02% | viability, T/C (second compound 0.003 µM, first compound 0.3 µM) 1.05% | viability, T/C (second compound 0.003 µM, first compound 0.949 µM) 0.95% | viability, T/C (second compound 0.003 µM, first compound 3 µM) 1.92% | viability, T/C (second compound 0.003 µM, first compound 9.49 µM) 2.21% | viability, T/C (second compound 0.003 µM, first compound 30 µM) 3.25%
11.3 µM: IC50 (second compound 94.9 pM)
> 30 µM: IC50 (second compound 0.0003 µM)
< 0.0949 µM: IC50 (second compound 0.003 µM)
14.5 µM: IC50 (second compound 30 pM)

COc1ccc([C@@H](O)c2cc(-c3ncnc4cc(N5CCOCC5)ccc34)c(F)cc2Cl)nn1 + Cn1nnc2c(C(N)=O)ncn2c1=O
5.38 µM: IC50 (second compound 1 µM)
8.27 µM: IC50 (second compound 3.16 µM)
> 10 µM: IC50 (second compound 10 µM) | IC50 (second compound 31.6 µM) | IC50 (second compound 100 µM)
inactive: viability, T/C (second compound 1 µM, first compound 0.0316 µM) 96.4% | viability, T/C (second compound 1 µM, first compound 0.1 µM) 94.1% | viability, T/C (second compound 1 µM, first compound 0.316 µM) 82% | viability, T/C (second compound 1 µM, first compound 1 µM) 78.3% | viability, T/C (second compound 1 µM, first compound 3.16 µM) 61.4% | viability, T/C (second compound 1 µM, first compound 10 µM) 36.7% | viability, T/C (second compound 3.16 µM, first compound 0.0316 µM) 92.8% | viability, T/C (second compound 3.16 µM, first compound 0.1 µM) 104% | viability, T/C (second compound 3.16 µM, first compound 0.316 µM) 90.9% | viability, T/C (second compound 3.16 µM, first compound 1 µM) 88.2% | viability, T/C (second compound 3.16 µM, first compound 3.16 µM) 64.3% | viability, T/C (second compound 3.16 µM, first compound 10 µM) 47.2% | viability, T/C (second compound 10 µM, first compound 0.0316 µM) 87% | viability, T/C (second compound 10 µM, first compound 0.1 µM) 98.7% | viability, T/C (second compound 10 µM, first compound 0.316 µM) 92% | viability, T/C (second compound 10 µM, first compound 1 µM) 75.1% | viability, T/C (second compound 10 µM, first compound 3.16 µM) 67.9% | viability, T/C (second compound 10 µM, first compound 10 µM) 54.6% | viability, T/C (second compound 31.6 µM, first compound 0.0316 µM) 89.3% | viability, T/C (second compound 31.6 µM, first compound 0.1 µM) 79.9% | viability, T/C (second compound 31.6 µM, first compound 0.316 µM) 84.6% | viability, T/C (second compound 31.6 µM, first compound 1 µM) 73.9% | viability, T/C (second compound 31.6 µM, first compound 3.16 µM) 67.2% | viability, T/C (second compound 31.6 µM, first compound 10 µM) 51.3% | viability, T/C (second compound 100 µM, first compound 0.0316 µM) 69.9% | viability, T/C (second compound 100 µM, first compound 0.1 µM) 70.8% | viability, T/C (second compound 100 µM, first compound 0.316 µM) 68% | viability, T/C (second compound 100 µM, first compound 1 µM) 62.5% | viability, T/C (second compound 100 µM, first compound 3.16 µM) 58.1% | viability, T/C (second compound 100 µM, first compound 10 µM) 55.4%
